Measurements published in ChEMBL document CHEMBL3862018, “Structure-activity of antifungal compounds inspired by aminobisabolenes from the sponge Halichondria sp” (2016).
≈ marks a conversion by molar mass, not a printed value.

Experiments:
Candida albicans = test: Antifungal activity against Candida albicans ATCC 14503 after 24 hrs by microbroth dilution method; assay type: functional; details: ATCC 14503, 24 h
[1] = test system: Cryptococcus gattii species complex; test: Antifungal activity against Cryptococcus gattii after 24 hrs by microbroth dilution method; assay type: functional, Cryptococcus bacillisporus
[2] = Antifungal activity against Candida glabrata after 24 hrs by microbroth dilution method; assay type: functional; details: Nakaseomyces glabratus
[3] = Antifungal activity against Candida krusei after 24 hrs by microbroth dilution method; assay type: functional; details: Pichia kudriavzevii
[4] = Antifungal activity against Trichophyton rubrum MRL666 after 72 hrs by CLSI M38-A method; assay type: functional

SMILES | MIC90 (Candida albicans) | MIC90 [1] | MIC90 [2] | MIC90 [3] | MIC90 [4]
CC(C)CCC[C@](C)(N)C1CCC(C)CC1 (some centres not stated) | 50 µM (≈ 11.3 µg/mL) | 18 µM (≈ 4.06 µg/mL) | 18 µM (≈ 4.06 µg/mL) | 14 µM (≈ 3.16 µg/mL) | 
CC(C)CCC[C@@](C)(C1CCC(C)CC1)N(C)C (some centres not stated) | 142 µM (≈ 36 µg/mL) | 31 µM (≈ 7.86 µg/mL) | 139 µM (≈ 35.2 µg/mL) | 58 µM (≈ 14.7 µg/mL) | 
CC(C)=CCC[C@](C)(N)[C@H]1CC=C(C)CC1 | 72 µM (≈ 15.9 µg/mL) | 53 µM (≈ 11.7 µg/mL) | 38 µM (≈ 8.41 µg/mL) | 36 µM (≈ 7.97 µg/mL) | 17 µM (≈ 3.76 µg/mL)
C[C@@H]1[C@H](O)[C@@H](C)/C=C/C=C/C=C/C=C/C=C/C=C/C=C/[C@H](O[C@@H]2O[C@H](C)[C@@H](O)[C@H](N)[C@@H]2O)C[C@@H]2O[C@](O)(C[C@@H](O)C[C@@H](O)[C@H](O)CC[C@@H](O)C[C@@H](O)CC(=O)O[C@H]1C)C[C@H](O)[C@H]2C(=O)O [AMPHOTERICIN B] | 0.3 µM (≈ 0.277 µg/mL) | 0.1 µM (≈ 0.0924 µg/mL) | 0.2 µM (≈ 0.185 µg/mL) | 0.5 µM (≈ 0.462 µg/mL) | 

More lines, now with the values ahead:

MIC90 (Candida albicans) | MIC90 [1] | MIC90 [2] | MIC90 [3] | MIC90 [4] | SMILES
> 250 µM | 5.3 µM (≈ 1.54 µg/mL) | > 250 µM | > 250 µM |  | CN(C/C=C/C#CC(C)(C)C)Cc1cccc2ccccc12 [TERBINAFINE]
> 250 µM | > 250 µM |  |  | > 250 µM | CC(C)=CCC[C@@](C)([C@H]1CC=C(C)CC1)N(C)Cc1cccc2ccccc12
> 250 µM | > 250 µM |  |  | 70 µM (≈ 25.3 µg/mL) | CC(C)=CCC[C@](C)(NCc1cccc2ccccc12)[C@H]1CC=C(C)CC1
